These results are taken from patent publication US9637496B2, “Substituted 7-azabicycles and their use as orexin receptor modulators” (priority 2013, dated 2017).

For one experiment, the target named is human orexin 2 receptor (Homo sapiens (Human), UniProt O43614). Nature of the experiment: Human orexin 2 receptor radioligand binding ([3H]-EMPA competition, HEK293 membranes).
For a further experiment, the target named is rat orexin 1 receptor (Rattus norvegicus (Rat), UniProt P56718). Put plainly: Rat orexin 1 receptor radioligand binding (competitive binding, HEK293 membranes).
Chain of rat orexin 1 receptor (P56718 whole entry): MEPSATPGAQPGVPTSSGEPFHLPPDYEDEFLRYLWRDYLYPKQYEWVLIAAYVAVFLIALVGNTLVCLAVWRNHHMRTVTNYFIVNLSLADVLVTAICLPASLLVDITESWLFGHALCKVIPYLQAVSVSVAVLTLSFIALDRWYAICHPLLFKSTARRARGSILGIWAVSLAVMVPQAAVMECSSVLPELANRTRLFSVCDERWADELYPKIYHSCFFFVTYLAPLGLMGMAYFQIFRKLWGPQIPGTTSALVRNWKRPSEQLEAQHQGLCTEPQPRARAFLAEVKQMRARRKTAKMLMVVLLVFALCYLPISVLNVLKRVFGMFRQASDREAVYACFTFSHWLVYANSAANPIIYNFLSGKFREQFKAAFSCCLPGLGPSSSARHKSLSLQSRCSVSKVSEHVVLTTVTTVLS
In a further experiment the target is human orexin 1 receptor (Homo sapiens (Human), UniProt O43613). Nature of the experiment: Human orexin 1 receptor radioligand binding (competitive binding, CHO membranes).
Chain of human orexin 1 receptor (O43613 whole entry): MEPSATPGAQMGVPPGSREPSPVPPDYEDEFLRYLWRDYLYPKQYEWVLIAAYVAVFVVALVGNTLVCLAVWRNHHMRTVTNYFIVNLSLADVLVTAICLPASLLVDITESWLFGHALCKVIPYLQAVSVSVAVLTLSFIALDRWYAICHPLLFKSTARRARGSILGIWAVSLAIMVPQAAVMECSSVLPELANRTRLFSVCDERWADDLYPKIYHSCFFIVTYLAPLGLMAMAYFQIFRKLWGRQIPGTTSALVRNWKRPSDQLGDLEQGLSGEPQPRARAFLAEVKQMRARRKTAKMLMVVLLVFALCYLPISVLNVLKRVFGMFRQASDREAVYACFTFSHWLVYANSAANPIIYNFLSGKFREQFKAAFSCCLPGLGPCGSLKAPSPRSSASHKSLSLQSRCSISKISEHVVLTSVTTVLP
[1] abbreviates: human orexin 2 receptor, Table 2, averages from between 2-20 runs, read-out: hOX2 Ki.
The mark [2] stands for this setting: rat orexin 1 receptor, Table 2, averages from between 2-20 runs, read-out: rOX1 Ki.
The mark [3] stands for this setting: Table 2, further testing, averages from 2-20 runs, read-out: hOX2 Ki.
Setting [4] is: Table 2, further testing, averages from 2-20 runs, read-out: rOX1 Ki.
The mark [5] stands for this setting: human orexin 2 receptor, Table 2, averages of 2-20 runs, read-out: hOX2 Ki.
Where [6] appears, read: human orexin 1 receptor, Table 2, averages of 2-20 runs, read-out: hOX1 Ki.

Each structure is given as a SMILES string. Where two headings read alike, the source gives them in different places.

Chain of human orexin 2 receptor (O43614 whole entry): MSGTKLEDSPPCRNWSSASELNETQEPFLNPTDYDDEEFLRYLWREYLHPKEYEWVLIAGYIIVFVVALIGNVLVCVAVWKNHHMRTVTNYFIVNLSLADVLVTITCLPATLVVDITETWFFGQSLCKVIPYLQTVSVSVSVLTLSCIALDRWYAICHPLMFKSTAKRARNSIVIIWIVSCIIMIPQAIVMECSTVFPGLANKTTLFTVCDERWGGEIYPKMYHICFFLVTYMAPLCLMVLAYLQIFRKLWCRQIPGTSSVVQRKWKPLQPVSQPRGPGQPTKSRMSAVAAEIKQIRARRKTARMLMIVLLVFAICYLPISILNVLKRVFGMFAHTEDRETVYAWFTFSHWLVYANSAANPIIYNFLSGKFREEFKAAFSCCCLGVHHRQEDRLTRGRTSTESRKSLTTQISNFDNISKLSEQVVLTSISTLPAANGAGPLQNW

For the compound `O=C(c1cccc(F)c1-n1nccn1)N1C2CCC1C(Oc1ccc(C(F)(F)F)nc1)C2` (racemic) [Example 438], the Ki on human orexin 2 receptor (setting [1]) and at rat orexin 1 receptor (setting [2]) was above 10000 nM throughout.
In the case of `Cc1cnc(-c2ncccn2)c(C(=O)N2[C@@H]3CC[C@H]2[C@H](Nc2cnc(C(F)(F)F)cn2)C3)c1` [Example 404, (5-methyl-2-(pyrimidin-2-yl)pyridin-3-yl)((1S,2R,4R)-2-((5-(trifluoromethyl)pyrazin-2-yl)amino)-7-azabicyclo[2.2.1]heptan-7-yl)methanone], the Ki at human orexin 2 receptor (setting [1]) is above 10000 nM; at rat orexin 1 receptor (setting [2]), 419 nM.
Consider `O=C(c1cccnc1-n1nccn1)N1C2CCC1C(Oc1ccc(C(F)(F)F)cn1)C2` (racemic) [Example 426], for which the Ki was above 10000 nM on human orexin 2 receptor and 5400 nM on rat orexin 1 receptor.
Regarding `O=C(c1cccc(F)c1-c1ncccn1)N1C2CCC1C(Oc1cnc(C(F)(F)F)cn1)C2` (racemic) [Example 447, (R/S)-(3-fluoro-2-(pyrimidin-2-yl)phenyl)(2-((5-(trifluoromethyl)pyrazin-2-yl)oxy)-7-azabicyclo[2.2.1]heptan-7-yl)methanone], the values for the Ki at human orexin 2 receptor (setting [3]) and on rat orexin 1 receptor (setting [4]) were above 10000 nM and 293 nM, respectively.
As for `COc1c(F)cccc1C(=O)N1C2CCC1C(Nc1ccc(F)cn1)C2` (racemic) [Example 237, (±)-(3-fluoro-2-methoxyphenyl)(2-((5-fluoropyridin-2-yl)amino)-7-azabicyclo[2.2.1]heptan-7-yl)methanone], at rat orexin 1 receptor (setting [2]), the Ki is above 1000 nM.
Take `Cc1ccc(C(=O)N2C3CCC2C(Oc2cnc(C(F)(F)F)cn2)C3)c(-n2nccn2)n1` (racemic) [Example 446, (R/S)-(6-methyl-2-(2H-1,2,3-triazol-2-yl)pyridin-3-yl)(2-((5-(trifluoromethyl)pyrazin-2-yl)oxy)-7-azabicyclo[2.2.1]heptan-7-yl)methanone]: the figures for the Ki on human orexin 2 receptor (setting [3]) and at rat orexin 1 receptor (setting [4]) were above 10000 nM and 4700 nM, respectively.
As for `COc1ccc(C(=O)N2[C@@H]3CC[C@H]2[C@H](Nc2cnc(C(F)(F)F)cn2)C3)c(Cl)n1` [Example 413, (2-chloro-6-methoxypyridin-3-yl)((1S,2R,4R)-2-((5-(trifluoromethyl)pyrazin-2-yl)amino)-7-azabicyclo[2.2.1]heptan-7-yl)methanone], the Ki at human orexin 2 receptor (setting [1]) and on rat orexin 1 receptor (setting [2]) was above 10000 nM each time.
Regarding `O=C(c1cccc(F)c1-n1nccn1)N1C2CCC1C(Oc1cnc3ccccc3n1)C2` (racemic) [Example 442], the Ki on human orexin 2 receptor (setting [1]) came to 1900 nM; at rat orexin 1 receptor (setting [2]) it was 349 nM.
Consider `O=C(c1cccc(F)c1-n1nccn1)N1C2CCC1C(Oc1cc(Br)cnc1Cl)C2` (racemic) [Example 443], for which the Ki on human orexin 2 receptor (setting [1]) and at rat orexin 1 receptor (setting [2]) was above 10000 nM each time.
Take `Cc1cccc(C(=O)N2[C@@H]3CC[C@H]2[C@H](Nc2cnc(C(F)(F)F)cn2)C3)c1-c1ncco1` [Example 266, (3-methyl-2-(oxazol-2-yl)phenyl)((1S,2R,4R)-2-((5-(trifluoromethyl)pyrazin-2-yl)amino)-7-azabicyclo[2.2.1]heptan-7-yl)methanone]: the Ki on rat orexin 1 receptor (setting [2]) amounted to 6 nM.
Turning to `O=C(c1cc(F)ccc1-c1ncccn1)N1C2CCC1C(COc1ccc(F)cn1)C2` (racemic) [Example 32, (4)-(5-fluoro-2-(pyrimidin-2-yl)phenyl)(2-(((5-fluoropyridin-2-yl)oxy)methyl)-7-azabicyclo[2.2.1]heptan-7-yl)methanone], at human orexin 2 receptor (setting [5]), the Ki stood at 130 nM.
For `O=C(c1cccc(F)c1-n1ccnn1)N1C2CCC1C(Oc1ccc(C(F)(F)F)cn1)C2` (racemic) [Example 424], the Ki is above 10000 nM at human orexin 2 receptor (setting [1]) and 2700 nM at rat orexin 1 receptor (setting [2]).
For `Cc1cnc(-c2ncccn2)c(C(=O)N2[C@@H]3CC[C@H]2[C@H](Nc2ccc(C(F)(F)F)cn2)C3)c1` [Example 378, (5-methyl-2-(pyrimidin-2-yl)pyridin-3-yl)((1S,2R,4R)-2-((5-(trifluoromethyl)pyridin-2-yl)amino)-7-azabicyclo[2.2.1]heptan-7-yl)methanone], the Ki at human orexin 2 receptor (setting [1]) is above 10000 nM; on rat orexin 1 receptor (setting [2]), 310 nM.
For the compound `O=C(c1cccc(F)c1-c1ncccn1)N1[C@@H]2CC[C@H]1[C@H](Nc1nc(C(F)(F)F)cs1)C2` [Example 418, (3-fluoro-2-(pyrimidin-2-yl)phenyl)((1S,2R,4R)-2-((4-(trifluoromethyl)thiazol-2-yl)amino)-7-azabicyclo[2.2.1]heptan-7-yl)methanone], the Ki on human orexin 2 receptor (setting [1]) amounted to 2500 nM; on rat orexin 1 receptor (setting [2]), 459 nM.
In the case of `O=C(c1cccnc1-n1nccn1)N1[C@@H]2CC[C@H]1[C@H](Nc1cnc(C(F)(F)F)cn1)C2` [Example 402, (2-(2H-1,2,3-triazol-2-yl)pyridin-3-yl)((1S,2R,4R)-2-((5-(trifluoromethyl)pyrazin-2-yl)amino)-7-azabicyclo[2.2.1]heptan-7-yl)methanone], the Ki at human orexin 2 receptor (setting [1]) is above 10000 nM; at rat orexin 1 receptor (setting [2]) it was 575 nM.
Consider `O=C(c1c(F)cccc1-n1nccn1)N1C2CCC1C(Oc1ccc(C(F)(F)F)nc1)C2` (racemic) [Example 439], for which the Ki on human orexin 2 receptor (setting [1]) and at rat orexin 1 receptor (setting [2]) was above 10000 nM throughout.
`O=C(c1c(F)cccc1-c1ncccn1)N1C2CCC1C(COc1ccc(F)cn1)C2` (racemic) [Example 31, (±)-(2-fluoro-6-(pyrimidin-2-yl)phenyl)(2-(((5-fluoropyridin-2-yl)oxy)methyl)-7-azabicyclo[2.2.1]heptan-7-yl)methanone] showed a Ki on human orexin 1 receptor of 43 nM.
For `Cc1coc(-c2ccc(C)nc2C(=O)N2[C@@H]3CC[C@H]2[C@H](COc2ncc(F)cn2)C3)n1` [Example 179, ((1S,2R,4R)-2-(((5-fluoropyrimidin-2-yl)oxy)methyl)-7-azabicyclo[2.2.1]heptan-7-yl)(6-methyl-3-(4-methyloxazol-2-yl)pyridin-2-yl)methanone], the Ki at human orexin 2 receptor (setting [5]) is 5400 nM; at rat orexin 1 receptor (rat orexin 1 receptor, Table 2, averages of 2-20 runs, read-out: rOX1 Ki), 2400 nM.
`Cc1cnc(-c2ncccn2)c(C(=O)N2[C@@H]3CC[C@H]2[C@H](Nc2ncc(C(F)(F)F)cc2F)C3)c1` [Example 455, ((1S,2R,4R)-2-((3-fluoro-5-(trifluoromethyl)pyridin-2-yl)amino)-7-azabicyclo[2.2.1]heptan-7-yl)(5-methyl-2-(pyrimidin-2-yl)pyridin-3-yl)methanone]: the Ki on human orexin 2 receptor (setting [3]) was above 10000 nM; on rat orexin 1 receptor (setting [4]), 464 nM.
With `O=C(c1cccc(F)c1-c1ncccn1)N1[C@@H]2CC[C@H]1[C@H](Nc1nnc(C(F)(F)F)s1)C2` [Example 419, (3-fluoro-2-(pyrimidin-2-yl)phenyl)((1S,2R,4R)-2-((5-(trifluoromethyl)-1,3,4-thiadiazol-2-yl)amino)-7-azabicyclo[2.2.1]heptan-7-yl)methanone], the Ki is 7400 nM at human orexin 2 receptor (setting [1]) and 853 nM on rat orexin 1 receptor (setting [2]).
On to `O=C(c1cccc(F)c1-n1nccn1)N1C2CCC1C(Oc1cnc(C(F)(F)F)cn1)C2` (racemic) [Example 445, (R/S)-(3-fluoro-2-(2H-1,2,3-triazol-2-yl)phenyl)(2-((5-(trifluoromethyl)pyrazin-2-yl)oxy)-7-azabicyclo[2.2.1]heptan-7-yl)methanone], for which the Ki on human orexin 2 receptor (setting [3]) was above 10000 nM; at rat orexin 1 receptor (setting [4]), 460 nM.
Regarding `Cc1cc(C)nc(OCC2CC3CCC2N3C(=O)c2ccccc2-c2cccs2)n1` (racemic) [Example 46, (±)-(2-(((4,6-dimethylpyrimidin-2-yl)oxy)methyl)-7-azabicyclo[2.2.1]heptan-7-yl)(2-(thiophen-2-yl)phenyl)methanone], at human orexin 1 receptor (setting [6]), the Ki worked out at 111 nM.
In the case of `Cc1cccc(C(=O)N2C3CCC2C(Oc2ccc(C(F)(F)F)nc2)C3)c1-n1nccn1` (racemic) [Example 437], the Ki on human orexin 2 receptor (setting [1]) and at rat orexin 1 receptor was above 10000 nM each time.
As to `CCOc1ncc2ccccc2c1C(=O)N1C2CCC1C(COc1ccccn1)C2` (racemic) [Example 83, (±)-(3-ethoxyisoquinolin-4-yl)(2-((pyridin-2-yloxy)methyl)-7-azabicyclo[2.2.1]heptan-7-yl)methanone], at human orexin 1 receptor, affinity was put at a Ki of 13 nM.
At human orexin 2 receptor, `O=C(c1ccccc1-c1cccs1)N1C2CCC1C(COc1ccc(F)cn1)C2` (racemic) [Example 11, (±)-(2-(((5-fluoropyridin-2-yl)oxy)methyl)-7-azabicyclo[2.2.1]heptan-7-yl)(2-(thiophen-2-yl)phenyl)methanone] yielded an inhibition constant (Ki) of 13 nM.
As to `Cc1ccc(C(=O)N2C3CCC2C(Oc2ccc(C(F)(F)F)cn2)C3)c(-n2nccn2)n1` (racemic) [Example 427], the results for the Ki at human orexin 2 receptor (setting [1]) and at rat orexin 1 receptor were above 10000 nM and 560 nM, respectively.
Take `O=C(c1cccc(F)c1-n1nccn1)N1C2CCC1C(Oc1ncc(Br)cn1)C2` (racemic) [Example 441]: the Ki on human orexin 2 receptor (setting [1]) was above 10000 nM; at rat orexin 1 receptor, 1500 nM.
With `O=C(c1ccccc1-n1cccn1)N1C2CCC1C(COc1ccc(F)cn1)C2` (racemic) [Example 26, (±)-2-(1H-pyrazol-1-yl)phenyl)(2-(((5-fluoropyridin-2-yl)oxy)methyl)-7-azabicyclo[2.2.1]heptan-7-yl)methanone], the Ki on human orexin 1 receptor (setting [6]) stood at 134 nM.
Regarding `O=C(c1cccc(F)c1-c1ncccn1)N1C2CCC1C(COc1ccc(F)cn1)C2` (racemic) [Example 124, (±)-(3-fluoro-2-(pyrimidin-2-yl)phenyl)(-2-(((5-fluoropyridin-2-yl)oxy)methyl)-7-azabicyclo[2.2.1]heptan-7-yl)methanone], the affinity at human orexin 1 receptor corresponds to a Ki of 75 nM.
As to `O=C(c1c(F)cccc1-n1nccn1)N1C2CCC1C(Oc1ccc(C(F)(F)F)cn1)C2` (racemic) [Example 425], the Ki at human orexin 2 receptor is 5100 nM; on rat orexin 1 receptor (setting [2]), 587 nM.
For the compound `Cc1cnc(-n2nccn2)c(C(=O)N2C3CCC2C(Oc2ccc(C(F)(F)F)cn2)C3)c1` (racemic) [Example 428], the Ki was above 10000 nM at human orexin 2 receptor (setting [1]) and 1100 nM on rat orexin 1 receptor.

For orientation: Ki means the equilibrium dissociation constant of an inhibitor or competing ligand from its target.
